In article PMC4532868, “Beneficial Effects of the mTOR Inhibitor Everolimus in Patients with Advanced Medullary Thyroid Carcinoma: Subgroup Results of a Phase II Trial” (International Journal of Endocrinology, 2015):

What was measured:
[1] = Phase II trial: adverse events graded by CTCAE version 4.0; format: in vivo, human
Description: Safety assessments were made every 4 weeks by adverse event collection, standard clinical and laboratory tests, and physical examinations. In case of toxicity or AEs requiring dose adjustments, drug dosing was interrupted or modified according to the guidelines. AE monitoring was continued for at least 4 weeks following the last dose of study treatment. The incidence, grade, and casual relationship of adverse events were graded with the use of Common Terminology Criteria for Adverse Events (CTCAE, version 4.0). Following study discontinuation, all patients were followed for survival for 4 weeks.

[2] = Steady-state pharmacokinetics in whole blood (UPLC-MS/MS, noncompartmental); format: in vivo, human
Method: In order to measure blood concentration levels of everolimus and assess everolimus steady-state pharmacokinetics (PK), patients were admitted to hospital for PK sampling on day 15 of each treatment cycle. Samples were collected in EDTA tubes at predose and at 1, 2, and 3 hours after everolimus intake. Additional PK sampling at 4, 5, 6, 7, and 8 hours after everolimus intake was optional. Everolimus concentrations in whole blood were determined using a validated Ultra Performance Liquid Chromatography-Tandem Mass Spectrometric (UPLC-MS/MS) assay.

[3] = test system: advanced thyroid cancer of all histologic subtypes; parameters: method as in PMID 24050953; settings: n = 38; cited from earlier work
[4] = test system: two medullary thyroid cancer cell lines; parameters: method as in PMID 21883896; settings: cited from earlier work
[5] = test system: TT thyroid cancer cell line and cultured human MTCs; parameters: method as in PMID 19815051; settings: cited from earlier work
mTOR = test system: mTOR; parameters: method as in PMID 19815051; settings: TT thyroid cancer cell line and cultured human MTCs; cited from earlier work

Q: Which “Fatigue, grade 1” value ([1]; in vivo) does the source give for `CO[C@H]1C[C@@H]2CC[C@@H](C)[C@@](O)(O2)C(=O)C(=O)N2CCCC[C@H]2C(=O)O[C@H]([C@H](C)C[C@@H]2CC[C@@H](OCCO)[C@H](OC)C2)CC(=O)[C@H](C)/C=C(\C)[C@@H](O)[C@@H](OC)C(=O)[C@H](C)C[C@H](C)/C=C/C=C/C=C/1C` [everolimus] here?
A: The value was 1 (33) number of patients (% of category).

Q: What about the “Fatigue, grade 3” value ([1]; in vivo) of the same compound?
A: Its value is 2 (67) number of patients (% of category).

Q: And the “Hypercholesterolemia, all grades” value ([1]; in vivo)?
A: The value was 2 (29) number of patients (% of total.

Q: What about the “Hypercholesterolemia, grade 1” value ([1]; in vivo) of the same compound?
A: The value was 1 (50) number of patients (% of category).

Q: And the “Hypercholesterolemia, grade 3” value ([1]; in vivo)?
A: Its value is 1 (50) number of patients (% of category).

Q: What about the “Hyperglycemia, all grades” value ([1]; in vivo) of the same compound?
A: Its value is 1 (14) number of patients (% of total.

Q: And the “Hyperglycemia, grade 3” value ([1]; in vivo)?
A: The value was 1 (100) number of patients (% of category).

Q: And the “Hypertriglyceridemia, all grades” value ([1]; in vivo)?
A: The value was 3 (43) number of patients (% of total.

Q: What about the “Hypertriglyceridemia, grade 1” value ([1]; in vivo) of the same compound?
A: Its value is 1 (33) number of patients (% of category).

Q: And the “Hypertriglyceridemia, grade 2” value ([1]; in vivo)?
A: Its value is 2 (67) number of patients (% of category).

Q: And the “Hypoparathyroidism, all grades” value ([1]; in vivo)?
A: Its value is 2 (29) number of patients (% of total.

Q: And the “Hypoparathyroidism, grade 1” value ([1]; in vivo)?
A: The value was 2 (100) number of patients (% of category).

Q: What about the “Hypophosphatemia, all grades” value ([1]; in vivo) of the same compound?
A: Its value is 2 (29) number of patients (% of total.

Q: And the “Hypophosphatemia, grade 1” value ([1]; in vivo)?
A: Its value is 2 (100) number of patients (% of category).

Q: What about the “Itch, all grades” value ([1]; in vivo) of the same compound?
A: The value was 1 (14) number of patients (% of total.

Q: And the “Itch, grade 2” value ([1]; in vivo)?
A: The value was 1 (100) number of patients (% of category).

Q: What about the “Liver function disorders, all grades” value ([1]; in vivo) of the same compound?
A: The value was 2 (29) number of patients (% of total.

Q: What about the “Liver function disorders, grade 1” value ([1]; in vivo) of the same compound?
A: Its value is 1 (50) number of patients (% of category).

Q: What about the “Liver function disorders, grade 2” value ([1]; in vivo) of the same compound?
A: The value was 1 (50) number of patients (% of category).

Q: What about the “Mucositis, all grades” value ([1]; in vivo) of the same compound?
A: The value was 3 (43) number of patients (% of total.

Q: And the “Mucositis, grade 1” value ([1]; in vivo)?
A: Its value is 2 (67) number of patients (% of category).

Q: And the “Mucositis, grade 2” value ([1]; in vivo)?
A: Its value is 1 (33) number of patients (% of category).

Q: And the “Nausea, all grades” value ([1]; in vivo)?
A: The value was 1 (14) number of patients (% of total.

Q: And the “Nausea, grade 1” value ([1]; in vivo)?
A: Its value is 1 (100) number of patients (% of category).

Q: What about the “Peripheral edema, all grades” value ([1]; in vivo) of the same compound?
A: The value was 2 (29) number of patients (% of total.

Q: And the “Peripheral edema, grade 2” value ([1]; in vivo)?
A: The value was 1 (50) number of patients (% of category).

Q: And the “Peripheral edema, grade 3” value ([1]; in vivo)?
A: The value was 1 (50) number of patients (% of category).

Q: And the “Pneumonia, all grades” value ([1]; in vivo)?
A: Its value is 2 (29) number of patients (% of total.

Q: What about the “Pneumonia, grade 1” value ([1]; in vivo) of the same compound?
A: The value was 1 (50) number of patients (% of category).

Q: What about the “Pneumonia, grade 3” value ([1]; in vivo) of the same compound?
A: Its value is 1 (50) number of patients (% of category).

Q: And the “Pneumonitis, all grades” value ([1]; in vivo)?
A: Its value is 1 (14) number of patients (% of total.

Q: What about the “Pneumonitis, grade 3” value ([1]; in vivo) of the same compound?
A: The value was 1 (100) number of patients (% of category).

Q: And the “Rash, all grades” value ([1]; in vivo)?
A: The value was 2 (29) number of patients (% of total.

Q: And the “Rash, grade 1” value ([1]; in vivo)?
A: The value was 1 (50) number of patients (% of category).

Q: What about the “Rash, grade 2” value ([1]; in vivo) of the same compound?
A: Its value is 1 (50) number of patients (% of category).

Q: What about the “Vomiting, all grades” value ([1]; in vivo) of the same compound?
A: Its value is 1 (14) number of patients (% of total.

Q: And the “Vomiting, grade 1” value ([1]; in vivo)?
A: The value was 1 (100) number of patients (% of category).

Q: And the “Weight loss, all grades” value ([1]; in vivo)?
A: The value was 1 (14) number of patients (% of total.

Q: What about the “Weight loss, grade 1” value ([1]; in vivo) of the same compound?
A: The value was 1 (100) number of patients (% of category).

Q: And the “Median number of AEs per patient” value ([1]; range 3–13)?
A: Its value is 5.

Q: What about the “Total number of AEs in the patient with high everolimus concentrations” value ([1]; single patient, AUC0–24 hr 960 μg∗hr/L) of the same compound?
A: The value was 13.

Q: What about the “T max, median (range)” value ([2]; 10 mg once daily, steady state day 15, whole blood) of the same compound?
A: The value was 1 (0.33–3.08) hr.

Q: What about the “AUC0–24 hr of the one patient with relatively high concentrations and more profound toxicity” value ([2]; human, in vivo) of the same compound?
A: The value was 960 μg∗hr/L.

Q: And the “Median progression-free survival (PFS)” value [3]?
A: The value was 47 weeks.

Q: What about the “Partial response (PR), patients” value [3] of the same compound?
A: Its value is 5%.

Q: What about the “Stable disease (SD), patients” value [3] of the same compound?
A: Its value is 76%.

Q: What about the Cell proliferation [4] of the same compound?
A: The Cell proliferation was “significant dose-dependent inhibition in cell proliferation”.

Q: And the Cell viability [5]?
A: Its Cell viability is “significantly inhibited cell viability in a dose- and time-dependent fashion”.

Q: And the “Phosphorylation of mTOR” value (mTOR)?
A: The value was “diminished phosphorylation of mTOR”.
